{"source": "ChEMBL document CHEMBL3856276", "about": "“Design, Synthesis, and Biological Evaluation of Novel Tetrahydroprotoberberine Derivatives (THPBs) as Selective α1A-Adrenoceptor Antagonists” (J Med Chem, 2016)", "key": {"[1]": {"target": "T1, Alpha-1A adrenergic receptor (Rattus norvegicus, UniProt P43140)", "T1 sequence (P43140 whole entry)": "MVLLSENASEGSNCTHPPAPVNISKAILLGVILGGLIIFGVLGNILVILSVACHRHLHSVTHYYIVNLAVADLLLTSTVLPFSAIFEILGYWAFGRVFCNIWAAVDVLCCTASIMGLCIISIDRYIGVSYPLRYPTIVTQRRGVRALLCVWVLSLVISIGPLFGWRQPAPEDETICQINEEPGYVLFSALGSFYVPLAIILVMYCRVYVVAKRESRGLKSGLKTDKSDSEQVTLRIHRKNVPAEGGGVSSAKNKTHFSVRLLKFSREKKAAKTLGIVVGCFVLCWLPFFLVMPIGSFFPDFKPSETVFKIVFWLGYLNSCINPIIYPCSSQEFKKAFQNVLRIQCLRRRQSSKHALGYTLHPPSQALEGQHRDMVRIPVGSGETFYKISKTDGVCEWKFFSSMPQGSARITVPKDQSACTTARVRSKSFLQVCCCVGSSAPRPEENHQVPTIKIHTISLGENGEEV", "assay": "Antagonist activity at alpha1A adrenoceptor in Sprague-Dawley rat urethra assessed as inhibition of norepinephrine-induced smooth muscle contraction after 20 mins"}, "[2]": {"target": "T2, Alpha-1B adrenergic receptor (Rattus norvegicus, UniProt P15823)", "T2 sequence (P15823 whole entry)": "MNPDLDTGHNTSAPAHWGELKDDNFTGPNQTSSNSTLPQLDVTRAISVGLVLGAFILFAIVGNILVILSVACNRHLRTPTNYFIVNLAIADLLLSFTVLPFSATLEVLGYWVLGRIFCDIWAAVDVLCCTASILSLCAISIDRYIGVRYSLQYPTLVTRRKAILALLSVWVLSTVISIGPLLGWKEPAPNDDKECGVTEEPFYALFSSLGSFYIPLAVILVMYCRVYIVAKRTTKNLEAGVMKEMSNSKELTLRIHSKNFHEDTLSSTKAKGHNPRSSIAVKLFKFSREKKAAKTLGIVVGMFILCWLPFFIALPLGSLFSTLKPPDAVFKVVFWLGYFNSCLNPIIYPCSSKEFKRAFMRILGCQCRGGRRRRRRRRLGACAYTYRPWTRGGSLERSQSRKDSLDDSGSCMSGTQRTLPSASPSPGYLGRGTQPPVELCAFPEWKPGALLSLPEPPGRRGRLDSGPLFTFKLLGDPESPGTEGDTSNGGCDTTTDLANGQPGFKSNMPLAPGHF", "assay": "Antagonist activity at alpha1B adrenoceptor in Sprague-Dawley rat aorta assessed as inhibition of norepinephrine-induced smooth muscle contraction after 20 mins"}}}
{"compound": "COc1ccc2[nH]c3c(c2c1)C[C@H]1c2cc4c(cc2CCN1C3)OCO4", "values": [{"measurement": "IC50", "setting": "[1]", "result": 0.5, "unit": "nM"}, {"measurement": "IC50", "setting": "[2]", "result": "> 1000", "unit": "nM"}]}
